# ChEMBL document CHEMBL1135773, “Purine and pyrimidine (P2) receptors as drug targets” (J Med Chem, 2002)
# What was measured:
# [1] = target: P2Y purinoceptor 1 (Meleagris gallopavo, UniProt P49652); assay: Evaluated for agonist activity against phospholipase C coupled P2Y purinoceptor 1 (P2Y1) of turkey erythrocytes; assay type: functional
# [2] = target: T1, P2X purinoceptor 2 (Rattus norvegicus, UniProt P49653); assay: The compound was evaluated for antagonist activity against recombinant rat receptor P2X purinoceptor 2 (P2X2) at 10 uM, expressed in Xenopus oocytes; assay type: functional, cell-based, Oocyte
# T1 sequence (P49653 whole entry): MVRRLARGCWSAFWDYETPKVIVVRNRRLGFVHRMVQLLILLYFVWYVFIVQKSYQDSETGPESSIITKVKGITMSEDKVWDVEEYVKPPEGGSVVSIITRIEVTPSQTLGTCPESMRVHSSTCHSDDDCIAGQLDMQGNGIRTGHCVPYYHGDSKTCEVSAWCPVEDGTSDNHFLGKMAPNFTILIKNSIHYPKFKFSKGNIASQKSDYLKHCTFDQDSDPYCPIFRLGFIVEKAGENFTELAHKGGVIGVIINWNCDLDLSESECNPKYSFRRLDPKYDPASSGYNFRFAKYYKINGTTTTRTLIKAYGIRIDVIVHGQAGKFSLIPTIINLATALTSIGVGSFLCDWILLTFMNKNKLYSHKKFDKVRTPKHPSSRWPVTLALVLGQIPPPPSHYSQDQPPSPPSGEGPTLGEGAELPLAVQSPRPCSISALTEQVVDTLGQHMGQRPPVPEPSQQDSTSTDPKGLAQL
# [3] = target: T2, P2X purinoceptor 1 (Homo sapiens, UniProt P51575); assay: Antagonist activity against recombinant human P2X purinoceptor 1 (P2X1 ); assay type: functional
# T2 sequence (P51575 whole entry): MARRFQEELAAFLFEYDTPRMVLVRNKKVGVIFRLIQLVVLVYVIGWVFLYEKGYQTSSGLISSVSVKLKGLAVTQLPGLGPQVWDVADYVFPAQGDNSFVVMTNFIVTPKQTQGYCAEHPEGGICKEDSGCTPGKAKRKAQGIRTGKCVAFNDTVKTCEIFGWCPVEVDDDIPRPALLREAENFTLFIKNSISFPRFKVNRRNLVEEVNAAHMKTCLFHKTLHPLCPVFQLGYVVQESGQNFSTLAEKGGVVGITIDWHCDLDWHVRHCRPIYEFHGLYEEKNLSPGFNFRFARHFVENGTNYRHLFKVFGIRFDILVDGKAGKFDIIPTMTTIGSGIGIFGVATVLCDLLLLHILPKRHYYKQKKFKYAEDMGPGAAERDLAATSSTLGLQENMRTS
# [4] = target: T3, P2X purinoceptor 5 (Rattus norvegicus, UniProt P51578); assay: Antagonist activity against recombinant rat P2X purinoceptor 5 (P2X5); assay type: functional
# T3 sequence (P51578 whole entry): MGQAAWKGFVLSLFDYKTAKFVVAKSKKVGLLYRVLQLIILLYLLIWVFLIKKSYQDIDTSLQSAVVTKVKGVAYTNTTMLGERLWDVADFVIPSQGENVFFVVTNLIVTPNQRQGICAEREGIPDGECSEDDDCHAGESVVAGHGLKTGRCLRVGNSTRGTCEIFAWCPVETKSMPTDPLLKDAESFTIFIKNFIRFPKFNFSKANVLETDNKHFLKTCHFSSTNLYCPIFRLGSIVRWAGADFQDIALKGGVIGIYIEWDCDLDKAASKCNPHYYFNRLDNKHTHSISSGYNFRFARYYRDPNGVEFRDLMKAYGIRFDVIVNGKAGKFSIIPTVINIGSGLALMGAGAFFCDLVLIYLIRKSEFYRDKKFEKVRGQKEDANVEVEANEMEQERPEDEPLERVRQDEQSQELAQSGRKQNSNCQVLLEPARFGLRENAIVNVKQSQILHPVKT
# [5] = target: T1, P2X purinoceptor 2; assay: Antagonist activity against recombinant rat receptor P2X purinoceptor 2 (P2X2) at 10 uM, expressed in Xenopus oocytes; assay type: functional, cell-based, Oocyte
# [6] = target: T4, P2X purinoceptor 4 (Rattus norvegicus, UniProt P51577); assay: Antagonist activity against recombinant rat P2X purinoceptor 4 (P2X4) at 30 uM, expressed in Xenopus oocytes; assay type: functional, cell-based, Oocyte
# T4 sequence (P51577 whole entry): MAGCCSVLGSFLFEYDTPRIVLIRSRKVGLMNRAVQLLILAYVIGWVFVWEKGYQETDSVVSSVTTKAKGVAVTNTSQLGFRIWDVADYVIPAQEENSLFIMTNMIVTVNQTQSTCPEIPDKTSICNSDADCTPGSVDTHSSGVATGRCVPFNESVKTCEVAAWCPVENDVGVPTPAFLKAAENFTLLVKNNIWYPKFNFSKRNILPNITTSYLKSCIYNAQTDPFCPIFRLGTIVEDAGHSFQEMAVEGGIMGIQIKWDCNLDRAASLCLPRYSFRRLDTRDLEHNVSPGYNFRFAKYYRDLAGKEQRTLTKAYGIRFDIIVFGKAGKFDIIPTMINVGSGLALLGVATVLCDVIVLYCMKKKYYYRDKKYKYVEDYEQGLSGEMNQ
# [7] = target: P2Y purinoceptor 4 (Homo sapiens, UniProt P51582); assay: The compound was evaluated for antagonist activity against phospholipase C coupled recombinant human P2Y purinoceptor 4 (P2Y4); assay type: functional
# [8] = target: P2Y purinoceptor 4 (Rattus norvegicus, UniProt O35811); assay: The compound was evaluated for agonist activity against phospholipase C coupled recombinant rat P2Y purinoceptor 4 (P2Y4); assay type: functional
# [9] = target: P2Y purinoceptor 12 (Rattus norvegicus, UniProt Q9EPX4); assay: Antagonist activity against phospholipase C coupled rat P2Y purinoceptor 12 (P2Y12); assay type: functional
# [10] = target: T5, P2X purinoceptor 7 (Homo sapiens, UniProt Q99572); assay: Antagonist activity against recombinant human P2X purinoceptor 7 (P2X7); assay type: functional
# T5 sequence (Q99572 whole entry): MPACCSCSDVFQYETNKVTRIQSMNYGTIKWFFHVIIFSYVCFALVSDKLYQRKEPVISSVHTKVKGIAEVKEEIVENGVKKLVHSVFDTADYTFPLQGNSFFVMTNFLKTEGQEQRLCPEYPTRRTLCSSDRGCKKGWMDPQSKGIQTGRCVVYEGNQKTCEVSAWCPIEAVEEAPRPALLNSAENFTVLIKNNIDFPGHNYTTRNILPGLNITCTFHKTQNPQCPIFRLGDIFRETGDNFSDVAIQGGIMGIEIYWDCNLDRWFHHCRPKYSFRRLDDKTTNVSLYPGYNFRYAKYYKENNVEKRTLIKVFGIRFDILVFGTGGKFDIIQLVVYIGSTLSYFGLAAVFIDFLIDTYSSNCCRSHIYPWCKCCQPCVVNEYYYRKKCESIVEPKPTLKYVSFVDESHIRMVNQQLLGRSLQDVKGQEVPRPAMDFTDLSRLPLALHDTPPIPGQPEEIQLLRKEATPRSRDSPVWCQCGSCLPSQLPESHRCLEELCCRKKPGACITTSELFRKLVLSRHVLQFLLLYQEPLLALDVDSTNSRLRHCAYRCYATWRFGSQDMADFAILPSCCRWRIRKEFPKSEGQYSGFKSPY
# [11] = target: P2Y purinoceptor 6 (Homo sapiens, UniProt Q15077); assay: The compound was evaluated for agonist activity against phospholipase C coupled recombinant human P2Y purinoceptor 6 (P2Y6); assay type: functional
# [12] = target: T6, P2X purinoceptor 3 (Homo sapiens, UniProt P56373); assay: Antagonist activity against recombinant human P2X purinoceptor 3 (P2X3 ); assay type: functional
# T6 sequence (P56373 whole entry): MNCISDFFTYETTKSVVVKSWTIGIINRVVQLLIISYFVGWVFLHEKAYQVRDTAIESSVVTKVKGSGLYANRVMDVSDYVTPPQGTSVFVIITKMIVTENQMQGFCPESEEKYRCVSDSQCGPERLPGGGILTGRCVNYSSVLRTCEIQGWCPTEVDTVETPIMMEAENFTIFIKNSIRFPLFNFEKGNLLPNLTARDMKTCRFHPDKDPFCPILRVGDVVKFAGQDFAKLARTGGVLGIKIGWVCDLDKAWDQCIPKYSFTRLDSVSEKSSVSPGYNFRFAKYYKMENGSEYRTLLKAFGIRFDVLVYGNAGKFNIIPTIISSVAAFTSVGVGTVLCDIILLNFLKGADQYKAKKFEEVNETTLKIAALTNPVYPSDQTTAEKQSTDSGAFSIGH
# [13] = target: P2Y purinoceptor 2 (Homo sapiens, UniProt P41231); assay: Evaluated for agonist activity against phospholipase C coupled recombinant human P2Y purinoceptor 2 (P2Y2); assay type: functional
# [14] = target: P2X purinoceptor 6 (Rattus norvegicus, UniProt P51579); assay: Antagonist activity against recombinant rat P2X purinoceptor 6 (P2X6 ); assay type: functional
# [15] = target: T7, P2X purinoceptor 4 (Homo sapiens, UniProt Q99571); assay: Antagonist activity against recombinant human P2X purinoceptor 4 (P2X4); assay type: functional
# T7 sequence (Q99571 whole entry): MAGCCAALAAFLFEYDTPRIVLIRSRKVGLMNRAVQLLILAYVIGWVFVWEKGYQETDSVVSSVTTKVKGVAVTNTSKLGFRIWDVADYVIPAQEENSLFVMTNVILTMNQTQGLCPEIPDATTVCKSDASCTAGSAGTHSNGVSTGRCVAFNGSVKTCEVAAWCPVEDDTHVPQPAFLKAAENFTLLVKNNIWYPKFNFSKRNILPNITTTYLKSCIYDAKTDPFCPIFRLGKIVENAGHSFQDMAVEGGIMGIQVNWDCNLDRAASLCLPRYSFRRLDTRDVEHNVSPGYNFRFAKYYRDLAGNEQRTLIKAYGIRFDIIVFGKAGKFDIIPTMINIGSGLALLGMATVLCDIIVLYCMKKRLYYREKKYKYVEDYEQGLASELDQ
# [16] = target: T8, P2X purinoceptor 1 (Rattus norvegicus, UniProt P47824); assay: Dissociation constant of the compound at P2X purinoceptor 1 (P2X1) from rat vas deferens was reported
# [17] = target: P2Y purinoceptor 1 (Cavia porcellus); assay: The compound was evaluated for antagonistic activity at P2Y purinoceptor 1 (P2Y1) from guinea pig taenia coli
# [18] = target: T8, P2X purinoceptor 1; assay: The compound was evaluated for antagonist activity against P2X purinoceptor 1 (P2X1) receptor from rat vas deferens; assay type: functional
# T8 sequence (P47824 whole entry, looked up): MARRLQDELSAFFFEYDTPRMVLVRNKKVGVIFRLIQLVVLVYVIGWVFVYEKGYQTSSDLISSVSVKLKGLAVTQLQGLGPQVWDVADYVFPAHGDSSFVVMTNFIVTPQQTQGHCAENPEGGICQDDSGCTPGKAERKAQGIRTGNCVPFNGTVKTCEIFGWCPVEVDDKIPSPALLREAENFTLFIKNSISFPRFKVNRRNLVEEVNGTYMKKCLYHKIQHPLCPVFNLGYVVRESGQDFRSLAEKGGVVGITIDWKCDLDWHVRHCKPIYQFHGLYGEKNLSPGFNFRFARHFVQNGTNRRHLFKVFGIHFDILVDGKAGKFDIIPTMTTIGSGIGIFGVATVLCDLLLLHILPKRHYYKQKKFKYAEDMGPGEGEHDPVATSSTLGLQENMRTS
# Sequence of P2Y purinoceptor 6 (Q15077 whole entry): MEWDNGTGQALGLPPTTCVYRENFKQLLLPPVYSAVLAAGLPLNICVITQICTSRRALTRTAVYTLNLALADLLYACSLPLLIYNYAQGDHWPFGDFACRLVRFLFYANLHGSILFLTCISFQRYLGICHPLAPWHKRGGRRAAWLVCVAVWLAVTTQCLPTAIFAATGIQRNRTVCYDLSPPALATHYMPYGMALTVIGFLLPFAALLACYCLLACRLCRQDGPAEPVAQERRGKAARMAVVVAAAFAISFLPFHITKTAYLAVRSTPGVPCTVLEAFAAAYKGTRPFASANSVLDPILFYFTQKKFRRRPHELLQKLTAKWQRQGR
# Sequence of P2X purinoceptor 6 (P51579 whole entry): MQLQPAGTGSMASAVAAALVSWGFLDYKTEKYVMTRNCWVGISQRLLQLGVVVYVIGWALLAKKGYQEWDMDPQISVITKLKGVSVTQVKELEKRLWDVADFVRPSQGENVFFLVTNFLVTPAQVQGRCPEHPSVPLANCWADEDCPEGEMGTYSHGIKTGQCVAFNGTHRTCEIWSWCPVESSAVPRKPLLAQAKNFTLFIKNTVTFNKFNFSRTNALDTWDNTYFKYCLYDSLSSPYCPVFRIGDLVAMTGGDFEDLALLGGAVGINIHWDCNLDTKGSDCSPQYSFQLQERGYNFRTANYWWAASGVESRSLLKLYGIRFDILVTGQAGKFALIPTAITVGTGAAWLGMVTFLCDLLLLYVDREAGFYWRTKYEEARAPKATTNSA
# Sequence of P2Y purinoceptor 12 (Q9EPX4 whole entry): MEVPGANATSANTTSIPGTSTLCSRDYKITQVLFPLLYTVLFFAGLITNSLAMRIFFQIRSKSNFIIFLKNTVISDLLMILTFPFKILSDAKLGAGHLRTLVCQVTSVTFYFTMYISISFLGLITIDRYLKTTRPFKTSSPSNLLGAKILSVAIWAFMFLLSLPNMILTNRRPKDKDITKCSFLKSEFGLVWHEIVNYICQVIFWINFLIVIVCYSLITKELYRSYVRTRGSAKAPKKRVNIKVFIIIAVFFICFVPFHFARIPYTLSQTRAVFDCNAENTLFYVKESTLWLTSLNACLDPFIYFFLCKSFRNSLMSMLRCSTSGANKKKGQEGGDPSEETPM
# Sequence of P2Y purinoceptor 4 (Rattus norvegicus, UniProt O35811) (O35811 whole entry): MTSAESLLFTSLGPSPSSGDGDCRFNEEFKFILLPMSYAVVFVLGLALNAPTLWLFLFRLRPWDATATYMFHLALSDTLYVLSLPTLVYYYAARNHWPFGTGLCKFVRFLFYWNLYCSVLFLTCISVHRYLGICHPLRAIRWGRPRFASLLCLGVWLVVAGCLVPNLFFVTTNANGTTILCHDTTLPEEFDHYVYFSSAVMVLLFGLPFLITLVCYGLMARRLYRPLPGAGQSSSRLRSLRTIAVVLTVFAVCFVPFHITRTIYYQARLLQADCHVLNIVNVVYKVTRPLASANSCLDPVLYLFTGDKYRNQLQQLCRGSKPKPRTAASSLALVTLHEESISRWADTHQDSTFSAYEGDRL
# Sequence of P2Y purinoceptor 2 (P41231 whole entry): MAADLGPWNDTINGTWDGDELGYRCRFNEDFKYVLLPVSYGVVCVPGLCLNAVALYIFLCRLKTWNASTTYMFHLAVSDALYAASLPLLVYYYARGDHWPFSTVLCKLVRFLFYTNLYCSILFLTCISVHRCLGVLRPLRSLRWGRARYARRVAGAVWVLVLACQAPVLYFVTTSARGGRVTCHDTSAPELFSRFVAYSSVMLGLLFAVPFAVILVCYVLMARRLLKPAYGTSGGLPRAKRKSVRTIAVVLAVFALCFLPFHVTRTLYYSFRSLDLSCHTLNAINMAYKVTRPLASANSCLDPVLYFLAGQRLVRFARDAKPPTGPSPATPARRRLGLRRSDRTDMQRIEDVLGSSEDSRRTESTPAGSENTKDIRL
# Sequence of P2Y purinoceptor 4 (Homo sapiens, UniProt P51582) (P51582 whole entry): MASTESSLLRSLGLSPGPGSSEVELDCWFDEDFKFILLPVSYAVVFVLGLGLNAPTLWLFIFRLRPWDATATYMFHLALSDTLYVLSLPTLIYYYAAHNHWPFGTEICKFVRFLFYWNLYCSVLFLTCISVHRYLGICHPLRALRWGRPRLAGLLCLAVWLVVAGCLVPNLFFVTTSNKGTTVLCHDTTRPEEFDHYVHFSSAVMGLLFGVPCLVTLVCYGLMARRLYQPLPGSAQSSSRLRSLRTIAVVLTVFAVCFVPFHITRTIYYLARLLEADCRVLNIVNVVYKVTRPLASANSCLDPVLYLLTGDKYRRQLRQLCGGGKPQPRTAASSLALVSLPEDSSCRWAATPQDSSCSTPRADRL
# Sequence of P2Y purinoceptor 1 (P49652 whole entry): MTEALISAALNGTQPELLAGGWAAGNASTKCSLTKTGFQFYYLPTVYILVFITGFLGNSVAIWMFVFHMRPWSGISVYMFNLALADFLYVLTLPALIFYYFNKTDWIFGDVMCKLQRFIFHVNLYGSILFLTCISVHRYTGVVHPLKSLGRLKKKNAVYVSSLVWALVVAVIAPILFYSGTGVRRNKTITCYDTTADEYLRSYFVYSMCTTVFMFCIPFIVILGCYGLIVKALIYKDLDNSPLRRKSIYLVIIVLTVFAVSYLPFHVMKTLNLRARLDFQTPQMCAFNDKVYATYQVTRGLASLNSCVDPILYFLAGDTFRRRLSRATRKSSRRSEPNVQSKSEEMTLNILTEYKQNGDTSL
compound,measurement,setting,value
Cc1nc(/N=N/c2cc(S(=O)(=O)O)ccc2Cl)c(COP(=O)(O)O)c(C=O)c1O,EC50,[1],0.0044 µM
same,EC50,[2],0.0011 µM
Nc1ncnc2c1ncn2[C@@H]1O[C@H](COP(=O)(O)OP(=O)(O)OP(=O)(O)O)[C@@H](O)[C@H]1O [ADENOSINE TRIPHOSPHATE],EC50,[3],0.056 µM
same,EC50,[4],1 µM
same,EC50,[5],1.4 µM
same,EC50,[6],1 µM
same,EC50,[7],43 µM
same,EC50,[8],1.8 µM
same,EC50,[9],3.19 µM
same,EC50,[10],780 µM
same,EC50,[11],> 100 µM
same,EC50,[12],0.34 µM
same,EC50,[13],0.23 µM
same,EC50,[14],1 µM
same,EC50,[15],0.5 µM
Cc1nc(/N=N/c2ccc(C(=O)O)c(Cl)c2)c(COP(=O)(O)O)c(C=O)c1O,Kd,[16],1.6 µM
same,Kd,[17],2.9 µM
same,IC50,[18],9.6 µM
